Patent EP4775208A1, “USE OF PRMT5 INHIBITOR IN TREATMENT OF TUMORS OR CANCERS” (Apeiron Therapeutics (Hong Kong) Ltd., priority 2023, dated 2025)
Read-outs that look alike come from different tables or passages of the source.

Columns and labels:
Type in all cases: cell-based
[1] = tested on: HCT-116 MTAP(-/-) deficient cells; assay: Inhibition of proliferation of HCT-116 MTAP(-/-) deficient cells (Cell-Titer Glo); settings: 8 days
How it was run: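 Cells in log-phase growth, RPMI-1640 with 10% FBS, seeded and left overnight at 37°C, 5% CO2. Compound tested at 0–10,000 nM (10 points, 3-fold, 0.1% DMSO) for 8 days at 37°C, 5% CO2. Viability read by CellTiter-Glo luminescence.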

U87MG MTAP(-/-) cells = assay: Inhibition of proliferation of U87MG MTAP(-/-) cells (CellTiter-Glo); settings: Homo sapiens, U-87 MG, 144 h, cell proliferation, 6 days
How it was run: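 U87MG MTAP(-/-) cells in log phase, seeded overnight, then exposed 6 days at 37 °C, 5% CO2 to compound at 10,000 nM top, 3-fold dilutions, 10 points, 0.5% DMSO final. Viability read by CellTiter-Glo luminescence.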

Calu-1 = assay: Mini cell panel: inhibition of proliferation of Calu-1 cells
From the text: (§1) Test 9: Mini Cell Panel: Assay for Inhibitory Activity of Compounds against Proliferation of 20 Tumor Cell Lines
(§2) Materials and Cells: Fifteen MTAP(-/-) cell lines and five MTAP wild-type cell lines were purchased from ATCC (USA). Cell culture media, fetal bovine serum (FBS), and penicillin-streptomycin were purchased from Thermo Fisher Scientific (USA). 384-well plates were purchased from PerkinElmer (USA). The CellTiter-Glo assay kit was purchased from Promega (USA). Paclitaxel was used as the control compound.

Aspc-1 = assay: Mini cell panel: inhibition of proliferation of Aspc-1 cells
From the text: as §1, §2

15 MTAP(-/-) cell lines = assay: Mini cell panel: summary over the MTAP(-/-) cell lines; settings: for selectivity, calculated based on the median values: MTAP wild-type vs MTAP(-/-) cell lines
From the text: as §1, §2

LU99 MTAP(-/-) cells = assay: Inhibition of proliferation of LU99 MTAP(-/-) cells (CellTiter-Glo); settings: cell proliferation, 6 days
Experimental: Test 3: Compound's inhibitory activity on proliferation of LU99 MTAP (-/-) cells.
(§3) Materials and Cells: The LU99 MTAP(-/-) cell line was purchased from Cobioer Biosciences (China). Cell culture media and fetal bovine serum (FBS) were purchased from Thermo Fisher Scientific (USA). 384-well plates were purchased from PerkinElmer (USA). The CellTiter-Glo assay kit was purchased from Promega (USA).
Cell Culture: LU99 MTAP(-/-) cells were cultured in a medium supplemented with 10% fetal bovine serum (FBS) at 37°C with 5% CO2. Only cells in the logarithmic growth phase were used for experiments.
(§4) Cell Proliferation Inhibition Assay: The antiproliferative activity of the compounds against LU99 MTAP(-/-) cells was assessed using the CellTiter-Glo assay kit. Cell suspensions were adjusted to the appropriate density and seeded into 384-well plates at a volume of 40 µL per well, then incubated overnight at 37°C with 5% CO2. Compounds (40 nL) were added to each well to achieve final concentrations ranging from 0 to 1,000 nM (starting concentration 1,000 nM, 2.5-fold serial dilutions, 10 dose points), with a final DMSO concentration of 0.2%. The cell plates were incubated at 37°C with 5% CO2 for 6 days. Subsequently, 40 µL of CellTiter-Glo reagent was added to measure cell viability.

[2] = tested on: LU99 MTAP-overexpressing cells; assay: Inhibition of proliferation of LU99 MTAP-overexpressing cells (CellTiter-Glo); settings: cell proliferation, 6 days
Experimental: Test 4: Assay for Inhibitory Activity of Compounds against LU99 MTAP-Overexpressing Cell Proliferation
as §3, with “MTAP-overexpressing” for “MTAP(-/-)”
Cell Culture: LU99 MTAP-overexpressing cells were cultured in a medium supplemented with 10% fetal bovine serum (FBS) at 37°C with 5% CO2. Only cells in the logarithmic growth phase were used for experiments.
as §4, with “MTAP-overexpressing” for “MTAP(-/-)”, “10,000” for “1,000”

[3] = Homo sapiens, Calu-1, MTAP Wild type
[4] = Homo sapiens, ASPC1, MTAP Wild type
[5] = read-out: median IC50, 15 MTAP(-/-) cell lines

IC50 ([1]; Homo sapiens, HCT-116, 192 h) [nM]	IC50 (U87MG MTAP(-/-) cells) [nM]	IC50 (15 MTAP(-/-) cell lines; span over the cell lines, read-out: IC50 values (range) against the 15 MTAP(-/-) cell lines) [nM]	Compound	IC50 (Calu-1; [3]) [nM]	IC50 (Aspc-1; [4]) [nM]	selectivity, calculated based on the median values (15 MTAP(-/-) cell lines) [fold]	IC50 (15 MTAP(-/-) cell lines; [5]) [nM]	IC50 (LU99 MTAP(-/-) cells; Homo sapiens, Lu-99, 144 h) [nM]	IC50 ([2]; Homo sapiens, Lu-99, 144 h) [nM]	IC50 [1] [nM]	IC50 (LU99 MTAP(-/-) cells) [nM]	IC50 [2] [nM]	IC50 (Calu-1; MTAP Wild type) [nM]	IC50 (Aspc-1; MTAP Wild type) [nM]
9.9	93.1	≥ 2.4	CN(C(=O)c1cc2c(cn1)nc(N)c1cncn12)[C@@H]1COc2cc(C(F)(F)F)ccc21 [Example 4, (S)-4-amino-N-methy 1-N-(6-(trifluoromethy 1)-2,3-dihydrobenzofuran-3-yl)imidazo[1,5-a]pyrido[3,4-e]pyrazine-8-carboxamide]	3370	6600	44.2	38.8	–	–	–	–	–	–	–
11	58.5	–	[2H]C([2H])([2H])N(C(=O)c1cc2c(cc1F)nc(N)c1cncn12)[C@@H]1COc2cc(C(F)(F)F)ccc21 [Example 41, (S)-4-amino-7-fluoro-N-(methyl-d3)-N-(6-(trifluoromethyl)-2,3-di hydrobenzofuran-3-yl)imidazo[1,5-a]quinox aline-8-carboxamide]	–	–	–	–	9.56	1640	–	–	–	–	–

Continued, compound first:

Compound	IC50 ([1]; Homo sapiens, HCT-116, 192 h) [nM]	IC50 (U87MG MTAP(-/-) cells) [nM]	IC50 (15 MTAP(-/-) cell lines; span over the cell lines, read-out: IC50 values (range) against the 15 MTAP(-/-) cell lines) [nM]	IC50 (Calu-1; [3]) [nM]	IC50 (Aspc-1; [4]) [nM]	selectivity, calculated based on the median values (15 MTAP(-/-) cell lines) [fold]	IC50 (15 MTAP(-/-) cell lines; [5]) [nM]	IC50 (LU99 MTAP(-/-) cells; Homo sapiens, Lu-99, 144 h) [nM]	IC50 ([2]; Homo sapiens, Lu-99, 144 h) [nM]	IC50 [1] [nM]	IC50 (LU99 MTAP(-/-) cells) [nM]	IC50 [2] [nM]	IC50 (Calu-1; MTAP Wild type) [nM]	IC50 (Aspc-1; MTAP Wild type) [nM]
[2H]C([2H])([2H])N(C(=O)c1ccc2nc(N)c3cncn3c2c1)[C@@H]1COc2cc(C(F)(F)F)ccc21 [Example 16, (S)-4-amino-N-(methyl-d3)-N-(6-(trifluoromethyl)-2,3-dihydrobenzofuran-3-yl)imidaz o[1,5-a]quinoxaline-8-carboxamide]	5.6	70.8	–	–	–	–	–	12.9	2480	–	–	–	–	–
CN(C(=O)c1ccc2nc(N)c3cncn3c2c1)[C@@H]1COc2cc(C(F)(F)F)ccc21 [Example 107, (S)-4-amino-N-methy 1-N-(6-(trifluoromethy 1)-2,3-dihydrobenzofuran-3-yl)imidazo[1,5-a]quinoxaline-8-carboxamide]	7.4	111	–	> 10000	> 10000	58.8	56.6	13.2	2360	–	–	–	–	–
(S)-4-amino-7-fluoro-N-methyl-N-(6-(triflu oromethyl)-2,3-dihydr obenzofuran-3-yl)imi dazo[1,5-a]quinoxalin e-8-carboxamide [Example 29]	–	–	–	–	–	77.7	42.4	–	–	7.1	10.7	1490	2300	> 10000
